Experiment [1] concerns B. tabaci. The experiment can be described thus: Statistical correlation (stepwise-linear regression, MANOVA) of headspace volatiles with whitefly repellence ranking. Set-up: species or system Bemisia tabaci. The conditions noted are these: for Effect on insects: volatiles of tomato headspace correlated to whitefly repellency/attraction score by linear regression; for compounds responsible for repellency or attraction of whitefly: linked to S. pennelli, S. habrochaites or cultivated S. lycopersicum headspace; for association: semiochemicals associated to B. tabaci repellence or attraction. The source says: In a large experiment (see Example 2), the headspace of 16 wild tomato accessions and 5 cultivated tomato lines were sampled and analyzed (6 repeats). In total 51 compounds were identified to be present in the captured headspace. Furthermore, the level of repellency/attraction of each of the 21 tomato accessions was established in free choice bioassays with B. tabaci (biotype Q), using a ranking scale of 1-7 (1=highest repellency to 7=lowest repellency). Next, the identified volatile compounds were correlated to the repellency/attraction score of each tomato accession through a linear regression analysis.
The headspace of 16 wild tomatoes and 5 cultivated tomatoes (Table 4) was collected. Undisturbed 3-weeks old tomato plants were transferred to 40-L desiccators. The headspace was sampled during 24 h including a 16 h light period, by trapping of the volatile components as described above. […] Each accession was sampled 6 times.
In a statistical analysis the correlation between the identified components of the tomato headspace and the ranking of whitefly repellence measured in the bioassays was made. Using two approaches, a stepwise-linear regression analysis and a MANOVA, 8 volatiles were identified to be correlated to whitefly repellence, whereas 24 other volatile compounds were eliminated as non-relevant for repellency or attraction.

Experiment [2] has as its system pests of cut flowers (e.g. B. tabaci). The conditions noted are these: fumigants at 10-20 mg/l, after 2-4 hours of exposure; cited from earlier work.
The subject of experiment [3] is B. tabaci. Description: Free-choice bioassay: headspace or pure volatiles added to one of four cv Moneymaker tomato plants. The class given is in vivo, Bemisia tabaci (biotype Q, Almeria population). The conditions noted are these: pure compound added to Moneymaker background. Here is the method:
A population of Bemisia tabaci was collected at a common greenhouse in Santa Maria del Aguila (Almeria, Spain) in October 2005. By PCR analyses this population was identified to belong to the Q-biotype. The population was reared in a climate chamber (Temperature 28° C., 16 h light) on a mixture of tomato and cucumber plants. Preference of the insects for particular plants (treated or untreated/control-treated) was tested in free choice bioassays.
Free choice experiments with B. tabaci were carried out in a greenhouse compartment (28° C., RH 65%). Light was supplied by high-pressure sodium lamps (Hortilex Schréder SON-T PIA GP 600 W) with a radiation of 250 W/m^2. The preference behaviour of B. tabaci biotype Q (Almeria population) and biotype B (labculture Netherlands) was compared in bioassays with different wild tomatoes (LA1777, LA2560, GI1560) and S. lycopersicum cv Moneymaker). Plants were placed inside a plastic covered wooden tray (170×100×20 cm) filled with soil, at equal distance from each other. Two hundred adult whiteflies were captured, placed at 4° C. for five minutes and then released in the middle of the setup. Ten and 20 minutes after release, the number of whiteflies on each plant was recorded. Since no differential behaviour between B. tabaci B and Q was found, all further bioassays were done with the Almeria (Q) population.
For bioassays with headspace (total headspace or single compounds) four potted tomato plants (S. esculentum cv Moneymaker) were placed in a square setup at a distance of 50 cm. One hundred and fifty adult whiteflies were released and recorded as described above. To test the effect of selected headspace components on repellence, synthetic standards (FLUKA) were applied to either 10 filter-papers discs (Whatman, 25 mm diameter) or 10 rubber septa (Sigma Aldrich, Z167258). Prior to loading, the septa were placed in CH2Cl2 for 24 h and air-dried for 3 days (Heath et al., 1986). The paper discs or septa containing volatiles were attached to one of the four plants with metal wire. The position of the treated tomato was randomised. Five minutes after placing the volatiles on the plant, whiteflies were released. For each component at least 8 replications were carried out. Treatments were administered in a setup in which compounds were always added to the same plant in comparison to 3 plants with empty carriers. Prior to each assay with volatiles, the experiment was done with the 4 plants in an untreated setup, in the same position to allow comparison in the same background.
Host preference with and without manipulated headspace by B. tabaci was explored in free choice assays. In each setup four cultivated tomatoes (cv. Moneymaker) were tested as described earlier. For the bioassays with volatiles rubber septa (Sigma Aldrich Z167258) were extracted with CH2Cl2 for 24 hours and dried to the air for 3 days. The desired blend of volatiles was added to the rubber septa in 100 μl hexane. Bioassays with pure components, or mixtures of pure components were carried out as described above.

The test system of another experiment is B. tabaci antennae. The experiment can be described thus: Electroantennography (EAG). Set-up: species or system Bemisia tabaci. The conditions noted are these: 10^-3 dilution in paraffin oil; response to paraffin oil subtracted. Here is the method:
Electroantennography (EAG) was employed to confirm the responsiveness of the atennae to 10^−3 dilution in paraffin oil (Uvasol, Merck) of the chemicals described. Small pieces of filter paper (2 cm2; Schleicher & Schuell, Dassel, Germany) were soaked with 100 μl of the standard dilution or praffin oil only (control). The filter paper was inserted into a 10-ml glass syringe (Poulten & Graf GmbH, Wertheim, Germany). A reproducible stimulus was supplied by puffing 5 ml of air over the antenna (Schutz et al., 1999). The EAG response was recorded for each standard (10^−3) dilution. The response to paraffin oil was considered as a negative control and was subtracted from all the reported EAG measurements. The EAG response expressed as a potential difference across the electrodes (in mV) for the different pure chemicals is given in the right-hand column of Table 5.

Experiment [4] concerns adult whiteflies B. tabaci. To be noted: cited from earlier work.
For experiment [5], the system named is fourth instar larvae of Colorado potato beetle. The conditions noted are these: cited from earlier work.

Take `CC(C)=CCCC(C)[C@@H]1C=CC(C)=CC1` (stereo partly drawn) [zingiberene]: the Effect on insects result in the experiment on B. tabaci [1] was “Repellent”.
For `CC12CCC(CC1)C(C)(C)O2` [Cineole], in experiment [2], the mortality result is “caused mortality”.
On to `CC(C)=CCC[C@H](C)c1ccc(C)cc1` [S-curcumene], for which, in the experiment on B. tabaci [3], the “effect on repellence/attractiveness of treated tomato plant (in words)” value (shortened to “effect on repellence/attractiveness”) is given as “clear repellent effect”. Further, in the experiment with B. tabaci [1], the “compounds responsible for repellency or attraction of whitefly” value (shortened to “compounds responsible”) is recorded as “more unattractive” and the association entry is reported as “repellence”. Also, the “antennal response (EAG potential difference)” value in the experiment on B. tabaci antennae was 5.0 mV.
Turning to `CC1=CC2C(CC1)C2(C)C` (stereo not drawn) [2-carene], in the experiment on B. tabaci [1], the “compounds responsible” value is “significantly correlated to the more attractive cultivated S. lycopersicum plants” and the Effect on insects result is listed as “Attractant”.
On to `CC(C)=CCC[C@@H](C)[C@@H]1C=CC(C)=CC1` [7-epi zingiberene], for which, in the experiment on B. tabaci [3], the “effect on repellence/attractiveness” value is on record as “clear repellent effect”. In the experiment on B. tabaci [1], the “compounds responsible” value is reported as “more unattractive” and the association entry is listed as “repellence”. For the same molecule, the “antennal response (EAG potential difference)” value in the experiment on B. tabaci antennae came to 2.3 mV.
Regarding `Cc1ccc(C(C)C)cc1` [para-cymene], in the experiment with B. tabaci [1], the “compounds responsible” value is reported as “repellent”, the association entry is reported as “repellence” and the Effect on insects entry is “Repellent”. In the experiment with B. tabaci antennae, the “antennal response (EAG potential difference)” value was 2.4 mV.
`C=CC(=C)CCC=C(C)C` [beta-myrcene]: in the experiment on B. tabaci [1], the “compounds responsible” value was “repellent” and the Effect on insects entry is reported as “Repellent”.
As to `CC1=CCC(C(C)C)=CC1` [gamma-terpinene], the “effect on repellence/attractiveness” value with B. tabaci [3] was “no significant behavioural effect”. Also, in the experiment on B. tabaci [1], the “compounds responsible” value is listed as “repellent” and the Effect on insects entry is listed as “Repellent”.
As for `C=C(C)[C@H]1CC=C(C)CC1` [limonene], in the experiment with B. tabaci [1], the “compounds responsible” value was “significantly correlated to the more attractive cultivated S. lycopersicum plants” and the Effect on insects entry is listed as “Attractant”.
Consider `C=C1C=CC(C(C)C)CC1` (stereo not drawn) [beta-phellandrene], for which, in the experiment with B. tabaci [1], the “compounds responsible” value is reported as “significantly correlated to the more attractive cultivated S. lycopersicum plants” and the Effect on insects entry is on record as “Attractant”.
Consider `CCCCCCCCCCCC(C)=O` [2-tridecanone], for which, in experiment [4], the toxic effect result is reported as “toxic effect”.
Turning to `C=CCc1ccc2c(c1)OCO2` [safrole], the mortality entry in experiment [2] is recorded as “caused mortality”.
Regarding `CCCCCCCCCC(C)=O` [2-undecanone], in experiment [5], the toxic effect entry is given as “toxic effect”.
For `CC1=CC=C(C(C)C)CC1` [Alpha-terpinene], the “effect on repellence/attractiveness” value with B. tabaci [3] is recorded as “decreased tomato attractiveness significantly”. For the same molecule, in the experiment with B. tabaci [1], the “compounds responsible” value is given as “repellent”, the association result was “repellence” and the Effect on insects result is reported as “Repellent”. Also, the “antennal response (EAG potential difference)” value in the experiment on B. tabaci antennae was determined as 4.1 mV.
Taken in the same sequence, the figures for `CC1=CCC(C(C)C)C=C1` (stereo not drawn) [Alpha-phellandrene] were “decreased tomato attractiveness significantly”, “repellent”, “repellence”, “Repellent” and 2.2 mV.
As to `CC(C)=CCCC(C)c1ccc(C)cc1` (stereo not drawn) [alpha-curcumene], the Effect on insects entry in the experiment with B. tabaci [1] is “Repellent”.

Values taken from patent publication US9364002B2, “Plant volatiles” (Keygene N.V., priority 2007, dated 2016).
